Measurements taken from ChEMBL document CHEMBL4359925, “Rational discovery of a highly novel and selective mTOR inhibitor” (Bioorg Med Chem Lett, 2019).
Active and inactive are the calls of the source. The calls are words filed in the database; no cut-off is given here.

Columns and labels:
[1] = Cmax in rat at 3 mg/kg, po; format: ADME, organism-based; set-up: dose 3 mg/kg, route oral; conditions: in vivo
[2] = Volume of distribution at steady state in rat at 0.8 mg/kg, iv; format: ADME, organism-based; conditions: in vivo, read-out: Vdss
[3] = Half-life in rat at 160 mg/kg, po; format: ADME, organism-based; conditions: in vivo
[4] = Clearance in mouse at 10.4 mg/kg, iv; format: ADME, organism-based; conditions: in vivo
[5] = Half-life in rat at 100 mg/kg, po; format: ADME, organism-based; conditions: in vivo
[6] = Tmax in dog at 30 mg/kg, po; format: ADME, organism-based, Canis lupus familiaris; conditions: in vivo
[7] = Tmax in dog at 0.45 mg/kg, po; format: ADME, organism-based, Canis lupus familiaris; conditions: in vivo
NCI-H1650 = assay: Additive antiproliferative activity against human NCI-H1650 cells harboring EGFR E746-A750del mutant in presence of gemcitabine; format: functional, cell-based
[8] = Half-life in rat at 95 mg/kg, po; format: ADME, organism-based; conditions: in vivo
A549 [9] = assay: Synergistic antiproliferative activity against human A549 cells harboring LKB1 mutant in presence of erlotinib; format: functional, cell-based
[10] = Cmax in rat at 100 mg/kg, po; format: ADME, organism-based; set-up: dose 100 mg/kg, route oral; conditions: in vivo
NCI-H1395 [11] = assay: Additive antiproliferative activity against human NCI-H1395 cells harboring LKB1 mutant in presence of erlotinib; format: functional, cell-based
[12] = Cmax in dog at 0.2 mg/kg, iv; format: ADME, organism-based, Canis lupus familiaris; set-up: dose 0.2 mg/kg, route intravenous; conditions: in vivo
NCI-H460 [13] = assay: Synergistic antiproliferative activity against human H460 cells harboring KRAS […] mutant in presence of gemcitabine
NCI-H292 = assay: Additive antiproliferative activity against human NCI-H292 cells in presence of erlotinib; format: functional, cell-based
[14] = Tmax in mouse at 8.7 mg/kg, po; format: ADME, organism-based; conditions: in vivo
[15] = Clearance in mouse at 2.8 mg/kg, iv; format: ADME, organism-based; conditions: in vivo
NCI-H1975 = assay: Additive antiproliferative activity against human NCI-H1975 cells harboring EGFR […]/T790M mutant in presence of gemcitabine; format: functional, cell-based
[16] = Half-life in mouse at 8.7 mg/kg, po; format: ADME, organism-based; conditions: in vivo
NCI-H1395 [17] = assay: Antiproliferative activity against human NCI-H1395 cells; format: functional, cell-based
[18] = Tmax in rat at 160 mg/kg, po; format: ADME, organism-based; conditions: in vivo
A549 [19] = assay: Synergistic antiproliferative activity against human A549 cells harboring KRAS G12S mutant in presence of gemcitabine; format: functional, cell-based
[20] = Tmax in rat at 83 mg/kg, po; format: ADME, organism-based; conditions: in vivo
A549 [21] = assay: Synergistic antiproliferative activity against human A549 cells harboring KRAS G12S mutant in presence of erlotinib; format: functional, cell-based
[22] = Clearance in dog at 0.2 mg/kg, iv; format: ADME, organism-based, Canis lupus familiaris; conditions: in vivo
[23] = Tmax in rat at 100 mg/kg, po; format: ADME, organism-based; conditions: in vivo
[24] = Half-life in mouse at 2.8 mg/kg, iv; format: ADME, organism-based; conditions: in vivo
NCI-H1395 [25] = assay: Additive antiproliferative activity against human NCI-H1395 cells harboring BRAF G469A in presence of gemcitabine; format: functional, cell-based
[26] = target: Phosphatidylinositol 4,5-bisphosphate 3-kinase catalytic subunit alpha isoform (Homo sapiens, UniProt P42336); assay: Inhibition of PI3K alpha (unknown origin)
HT-29 = assay: Antiproliferative activity against human HT-29; format: functional, cell-based
[27] = Volume of distribution at steady state in mouse at 2.8 mg/kg, iv; format: ADME, organism-based; conditions: in vivo, read-out: Vdss
[28] = Cmax in mouse at 8.7 mg/kg, po; format: ADME, organism-based; set-up: dose 8.7 mg/kg, route oral; conditions: in vivo
786-0 = assay: Antitumour activity against human 786-O cells in xenograft model assessed as tumour growth inhibition at 30 mg/kg, qd; format: functional, organism-based
[29] = Tmax in rat at 4.9 mg/kg, po; format: ADME, organism-based; conditions: in vivo
[30] = Tmax in rat at 95 mg/kg, po; format: ADME, organism-based; conditions: in vivo
NCI-H460 [31] = assay: Antiproliferative activity against human H460 cells; format: functional, cell-based
A2780 = assay: Antiproliferative activity against human A2780; format: functional, cell-based
[32] = Half-life in rat at 31 mg/kg, po; format: ADME, organism-based; conditions: in vivo
[33] = Cmax in mouse at 2.8 mg/kg, iv; format: ADME, organism-based; set-up: dose 2.8 mg/kg, route intravenous; conditions: in vivo
[34] = Volume of distribution at steady state in mouse at 10.4 mg/kg, iv; format: ADME, organism-based; conditions: in vivo, read-out: Vdss
[35] = Cmax in rat at 0.8 mg/kg, iv; format: ADME, organism-based; set-up: dose 0.8 mg/kg, route intravenous; conditions: in vivo
[36] = Cmax in rat at 160 mg/kg, po; format: ADME, organism-based; set-up: dose 160 mg/kg, route oral; conditions: in vivo
[37] = target: Serine/threonine-protein kinase mTOR (Homo sapiens, UniProt P42345); assay: Inhibition of human mTOR measured after 30 mins in presence of ATP by Lanthascreen TR-FRET assay
[38] = Cmax in rat at 93 mg/kg, po; format: ADME, organism-based; set-up: dose 93 mg/kg, route oral; conditions: in vivo
MCF7 = assay: Antiproliferative activity against human MCF7; format: functional, cell-based
[39] = Half-life in dog at 0.45 mg/kg, po; format: ADME, organism-based, Canis lupus familiaris; conditions: in vivo
[40] = Half-life in rat at 0.8 mg/kg, iv; format: ADME, organism-based; conditions: in vivo

Phosphatidylinositol 4,5-bisphosphate 3-kinase catalytic subunit alpha isoform, sequence (P42336 whole entry, canonical isoform): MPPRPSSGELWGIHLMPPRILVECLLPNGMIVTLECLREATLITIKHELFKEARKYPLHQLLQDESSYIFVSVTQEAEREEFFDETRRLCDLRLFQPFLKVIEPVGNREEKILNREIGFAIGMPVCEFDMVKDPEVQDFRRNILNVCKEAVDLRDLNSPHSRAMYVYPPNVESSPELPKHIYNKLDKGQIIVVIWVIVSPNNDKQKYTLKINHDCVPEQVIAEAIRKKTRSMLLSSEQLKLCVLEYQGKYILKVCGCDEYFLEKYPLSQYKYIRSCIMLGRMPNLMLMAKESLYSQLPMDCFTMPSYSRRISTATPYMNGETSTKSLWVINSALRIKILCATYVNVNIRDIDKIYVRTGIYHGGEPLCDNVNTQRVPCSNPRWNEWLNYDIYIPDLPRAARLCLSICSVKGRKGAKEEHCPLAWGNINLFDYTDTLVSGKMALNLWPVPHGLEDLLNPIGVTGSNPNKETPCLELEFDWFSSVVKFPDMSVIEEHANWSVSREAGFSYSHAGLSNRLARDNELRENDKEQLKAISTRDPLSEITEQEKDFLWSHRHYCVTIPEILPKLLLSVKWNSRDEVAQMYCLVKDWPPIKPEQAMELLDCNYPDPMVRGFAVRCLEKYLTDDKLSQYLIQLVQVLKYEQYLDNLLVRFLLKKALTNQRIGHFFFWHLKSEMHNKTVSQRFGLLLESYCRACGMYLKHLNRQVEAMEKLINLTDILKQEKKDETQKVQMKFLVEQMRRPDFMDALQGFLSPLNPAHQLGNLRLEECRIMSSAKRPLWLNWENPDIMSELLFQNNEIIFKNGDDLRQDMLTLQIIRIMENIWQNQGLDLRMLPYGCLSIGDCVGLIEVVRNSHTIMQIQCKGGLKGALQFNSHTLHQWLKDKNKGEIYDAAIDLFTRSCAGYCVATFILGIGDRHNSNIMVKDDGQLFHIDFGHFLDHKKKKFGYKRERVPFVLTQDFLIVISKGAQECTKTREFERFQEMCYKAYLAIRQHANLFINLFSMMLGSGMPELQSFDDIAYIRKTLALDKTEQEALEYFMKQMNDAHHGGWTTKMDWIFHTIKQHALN

Cmax [1]: 176 ng/mL
Vd [2]: 0.951 L/kg
half-life [3]: 21.4 h
clearance [4]: 4 mL/min/kg
half-life [5]: 14.7 to 15 h
Tmax [6]: 7.3 h
Tmax [7]: 4 h
half-life [8]: 33.9 h
Cmax [10]: 3670 to 6410 ng/mL
Cmax [12]: 278 ng/mL
Tmax [14]: 4 h
clearance [15]: 8.5 mL/min/kg
half-life [16]: 2.3 h
Tmax [18]: 10 h
Tmax [20]: 14 h
clearance [22]: 3.3 mL/min/kg
Tmax [23]: 4.7 to 14.7 h
half-life [24]: 2.7 h
IC50 [26]: 1260 nM
Vd [27]: 1.66 L/kg
Cmax [28]: 5370 ng/mL
Tmax [29]: 3.3 h
Tmax [30]: 13.3 h
half-life [32]: 8.7 to 18.6 h
Cmax [33]: 6860 ng/mL
Vd [34]: 1.16 L/kg
Cmax [35]: 873 ng/mL
Cmax [36]: 7700 ng/mL
IC50 [37]: 12.6 nM
Cmax [38]: 7220 ng/mL
half-life [39]: 10.3 h
half-life [40]: 1.8 h
Structure (SMILES): CC(F)(F)CN1C(=O)[C@]2(C)COCCN2c2nc(-c3ccc(NC(=O)NC4CC4)cc3)ncc21
Activity (NCI-H1650): Active
Activity (A549 [9]): Active
Activity (NCI-H1395 [11]): Active
Activity (NCI-H460 [13]): Active
Activity (NCI-H292): Active
Activity (NCI-H1975): Active
Activity (NCI-H1395 [17]): Active
Activity (A549 [19]): Active
Activity (A549 [21]): Active
Activity (NCI-H1395 [25]): Active
Activity (HT-29): Active
TGI (786-0): Active
Activity (NCI-H460 [31]): Active
Activity (A2780): Active
Activity (MCF7): Active
